The nature of series [1]: pH monitoring of calcium carbonate antacid tablets in HCl dissolution vessel. It is filed as physicochemical. The conditions noted are these: five tablets, 25 mEq of HCl. The method, then:
Two dissolution vessels were prepared: one vessel contained 25 mEq of HCl and a single commercially available calcium carbonate antacid tablet (Tums®), and the other vessel contained 25 mEq of HCl and five calcium carbonate antacid tablets. […] Calcium carbonate has shown a capability as a pH modifier and pH dependent solubility.

For series [2] the following is noted: acid media pH 1. The method, then:
Thus, sodium bicarbonate was added to a prototype formulation primarily to control rapid pH elevation and calcium carbonate for a more sustained control of elevated pH.

For the molecule `O=C([O-])[O-].[Ca+2]` [calcium carbonate], the “pH reached in 10 minutes” value in series [1] turned out to be 5.

As to `O=C([O-])O.[Na+]` [sodium bicarbonate], the “time to raise acid media from pH 1 to pH 6” value in series [2] is reported as “less than 2 minutes”.

Source of the values: US11103581B2, “Methods and compositions for self-regulated release of active pharmaceutical ingredient” (Acura Pharmaceuticals, Inc., priority 2015, dated 2021).
